Laboratory results as given in patent publication US20250368637A1, “SOLID-STATE FORMS OF N-(2-(4-CYANOTHIAZOLIDIN-3-YL)-2-OXOETHYL)-6-MORPHOLINOQUINOLINE-4-CARBOXAMIDE” (AstraZeneca AB, priority 2022, published 2025).

Key:
hFAP (M39-A757) = hFAP (M39-A757) (Homo sapiens (Human), UniProt Q12884); assay: hFAP binding assay (surface plasmon resonance); details: SPR, 20° C.
Method: The hFAP protein used in the Examples was either commercially sourced or produced in insect cells as recombinant hFAP (Gp67-6HN-TEV-FAP (M39-A757), MW 89086.7 Da, or cd33-FAP (27-757)-6His, MW85926 Da).
Immobilization of hFAP (M39-A757) on a CMD200M sensor chip (Xantec) was performed using standard amine coupling procedure in immobilization buffer (10 mM HEPES, 150 mM NaCl, 0.05% Tween20, pH 7.4). The surface was washed with 10 mM NaOH, IM NaCl before being activated with EDC/NHS (GE Healthcare), followed by immobilization of hFAP (in 10 mM Acetate pH 5.0). Finally, the surface was deactivated by ethanolamine. Immobilization levels of hFAP were around 4000-6000 RU. The reference spot was treated as described, omitting the injection of hFAP. Compound concentration series were injected over the immobilized protein in increasing concentrations (2-500 nM) using single cycle kinetics in running buffer (20 mM TRIS, 150 mM NaCl, 0.05% Tween20, 1% DMSO, pH 7.4). Interaction models were fitted globally to the experimental traces, enabling determination of kon, koff and Kd.

FAP Cyno Plasma = FAP Cyno Plasma (Macaca fascicularis, UniProt A0A2K5VGH4); assay: FAP plasma inhibition assay, cynomolgus plasma; assay type: biochemical; details: cynomolgus plasma dilution 1:40
FAP Cyno Plasma, sequence (A0A2K5VGH4 1-745): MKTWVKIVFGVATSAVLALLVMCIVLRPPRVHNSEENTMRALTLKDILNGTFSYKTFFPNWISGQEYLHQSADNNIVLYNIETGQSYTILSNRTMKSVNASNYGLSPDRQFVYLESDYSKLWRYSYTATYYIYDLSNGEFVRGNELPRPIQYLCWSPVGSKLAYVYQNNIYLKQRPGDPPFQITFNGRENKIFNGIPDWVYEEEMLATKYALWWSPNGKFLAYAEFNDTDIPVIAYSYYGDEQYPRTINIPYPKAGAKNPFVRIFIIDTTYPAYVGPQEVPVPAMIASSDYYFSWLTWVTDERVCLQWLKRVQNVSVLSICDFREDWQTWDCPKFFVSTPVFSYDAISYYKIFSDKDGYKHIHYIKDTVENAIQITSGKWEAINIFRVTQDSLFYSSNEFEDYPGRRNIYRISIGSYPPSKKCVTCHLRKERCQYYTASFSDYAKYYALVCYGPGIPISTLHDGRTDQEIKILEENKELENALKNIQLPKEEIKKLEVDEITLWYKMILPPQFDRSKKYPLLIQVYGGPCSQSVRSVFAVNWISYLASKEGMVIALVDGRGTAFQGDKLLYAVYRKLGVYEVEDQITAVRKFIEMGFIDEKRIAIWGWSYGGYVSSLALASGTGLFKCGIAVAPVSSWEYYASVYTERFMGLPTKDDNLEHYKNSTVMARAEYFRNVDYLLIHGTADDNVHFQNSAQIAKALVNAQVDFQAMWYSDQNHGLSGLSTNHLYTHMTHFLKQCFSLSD
Method: Plasma (anticoagulant K2EDTA) was used as the enzyme source: Human plasma (Pooled from AZ Biobank), Mouse plasma (AZ AST Biobank), and Cynomolgus plasma (BioIVT, #NHP00PLK2FNN, lot CYN222895). 384-Well black fluotrack PS plates (Greiner 781076) were used. 20 μL diluted plasma (Cynomolgus and Human plasma dilution 1:40, Mouse plasma dilution 1:67) in buffer (PBS, 0.1% BSA) was added to 0.6 μL compounds (in DMSO). Compounds were tested using 10 CR, 3-fold dilution series from 500 nM FAC. Two replicates for each assay point were run on the same plate. A fluorescence blank read was taken before substrate addition. […] Plates were incubated for 40 min at rt in the dark. […] IC50 values were determined by plotting % inhibition versus log compound concentration.

hFAP (M39-A757), sequence (Q12884 39-757): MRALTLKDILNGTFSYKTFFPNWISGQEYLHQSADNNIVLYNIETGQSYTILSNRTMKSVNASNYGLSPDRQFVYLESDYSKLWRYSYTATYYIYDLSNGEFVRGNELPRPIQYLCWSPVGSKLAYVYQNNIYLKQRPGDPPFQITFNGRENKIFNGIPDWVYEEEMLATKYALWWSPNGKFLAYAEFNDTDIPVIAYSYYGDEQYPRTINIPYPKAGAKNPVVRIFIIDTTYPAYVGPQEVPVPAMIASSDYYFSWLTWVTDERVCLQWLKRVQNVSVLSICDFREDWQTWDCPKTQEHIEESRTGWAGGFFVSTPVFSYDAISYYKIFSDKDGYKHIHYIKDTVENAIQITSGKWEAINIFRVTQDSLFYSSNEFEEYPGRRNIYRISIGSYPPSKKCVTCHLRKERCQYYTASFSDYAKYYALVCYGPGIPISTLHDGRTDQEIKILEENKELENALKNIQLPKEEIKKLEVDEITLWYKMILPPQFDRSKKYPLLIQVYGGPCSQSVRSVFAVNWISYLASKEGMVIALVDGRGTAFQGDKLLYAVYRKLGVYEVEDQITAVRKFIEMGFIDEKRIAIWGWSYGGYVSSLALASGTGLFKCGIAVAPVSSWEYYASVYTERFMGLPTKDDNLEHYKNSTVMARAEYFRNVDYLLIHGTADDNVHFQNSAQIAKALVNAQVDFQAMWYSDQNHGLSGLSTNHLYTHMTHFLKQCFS

hFAP Binding assay k(off) (hFAP (M39-A757)): k(off) = 0.000046 1/s^3
hFAP Binding assay k(on) (hFAP (M39-A757)): k(on) = 4900000 M^−1s^−1
IC50 (FAP Cyno Plasma): 0.4 nM
Structure (SMILES): N#C[C@@H]1CSCN1C(=O)CNC(=O)c1ccnc2ccc(N3CCOCC3)cc12 [(R)—N-(2-(4-Cyanothiazolidin-3-yl)-2-oxoethyl)-6-morpholinoquinoline-4-carboxamide]
